Measured values published in publication PMC9445081, “Structural basis for recognition of N-formyl peptides as pathogen-associated molecular patterns” (Nature Communications, 2022).
Values joined by “and” are separate entries in the source; they are usually repeats but may differ in a detail not shown here. Equal values may be shown once. Read-outs that look alike come from different tables or passages of the source. Where a SMILES comes first, the peptide text is derived from it. Where no end group is shown, it is not given here. The star is where a group is joined. For = O=C*

What was measured:
[1] = target: T1, FPR1 R205A (Homo sapiens, UniProt P21462, R205A); test: cAMP inhibition assay, FPR1 R205A; assay type: cell-based; set-up: key to cAMP response, source data of Fig. 5c: % of maximal cAMP level for each construct; settings: for cAMP response, source data of Fig. 5c: FPR1 R205A, single replicate readings
T1 construct: expressed in transfected cells; host or cells: HeLa cells, transient, pcDNA3.1(+)
T1 sequence (P21462 1-350 R205A): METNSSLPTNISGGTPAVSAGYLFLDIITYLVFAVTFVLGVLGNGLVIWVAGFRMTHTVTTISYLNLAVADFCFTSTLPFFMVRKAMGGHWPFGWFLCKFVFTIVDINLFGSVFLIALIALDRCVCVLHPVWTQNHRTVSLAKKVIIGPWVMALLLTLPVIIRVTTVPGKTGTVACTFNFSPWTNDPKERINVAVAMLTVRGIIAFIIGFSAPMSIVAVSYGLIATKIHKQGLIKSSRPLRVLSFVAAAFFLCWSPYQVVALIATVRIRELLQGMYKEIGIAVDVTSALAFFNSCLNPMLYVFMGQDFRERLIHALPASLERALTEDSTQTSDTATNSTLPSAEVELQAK
Source text: (§1) FPR1 cDNA in the pcDNA3.1(+) vector (Invitrogen) was used as a template for gene manipulation. The mutations of FPR1 were introduced in the receptor through overlap extension PCR with elaborately designed primers (GENEWIZ, Suzhou, China). The sequences of the primers were listed in Supplementary Table 2. Two fragments of FPR1 (separated at mutated positions) were assembled into pre-cut pcDNA3.1(+) vectors with the ClonExpress Ultra One Step Cloning Kit (Vazyme Biotech, C115). Plasmids with FPR1 mutations were confirmed by DNA sequencing (GENEWIZ).
(§2) For functional studies, FPR1 and its mutants were expressed in HeLa cells as above. The cells were resuspended in HBSS buffer plus 5 mM HEPES, 0.1% BSA (w/v) and 0.5 mM 3-isobutyl-1-methylxanthine and seeded into 384-well plates. […] AG-14 was synthesized by Sungening Biotechnology (Shenzhen, China). Different concentrations of the ligands were prepared plus a fixed dose of forskolin with the buffer above. […] Intracellular cAMP levels were measured with the LANCE Ultra cAMP kit (PerkinElmer, TRF0263) following the manufacturer’s instructions. […] Intracellular cAMP levels were calculated according to the TR-FRET signals of the samples and cAMP standards.
(§3) The data were analyzed with Prism 6.0 (GraphPad, San Diego, CA). For dose-response analysis, the curves were plotted with the log[agonist] vs. response equation (three parameters) in the software. Data points were presented as the percentages (mean ± SEM) of the maximal cAMP level for each construct, from at least three independent experiments, as indicated in figure legends. The pEC50 values were the negative logarithm of the EC50 values, which were obtained from the dose-response curves. For cell surface expression, data points were presented as the percentages (mean ± SEM) of the flow cytometry fluorescence signals of WT FPR1. For statistical comparison, a p-value of 0.05 or lower is considered statistically significant.

[2] = target: T2, FPR1 R84A (Homo sapiens, UniProt P21462, R84A); test: cAMP inhibition assay, FPR1 R84A; assay type: cell-based; set-up: key to cAMP response, source data of Fig. 5c: % of maximal cAMP level for each construct
T2 construct: expressed in transfected cells; host or cells: HeLa cells, transient, pcDNA3.1(+)
T2 sequence (P21462 1-350 R84A): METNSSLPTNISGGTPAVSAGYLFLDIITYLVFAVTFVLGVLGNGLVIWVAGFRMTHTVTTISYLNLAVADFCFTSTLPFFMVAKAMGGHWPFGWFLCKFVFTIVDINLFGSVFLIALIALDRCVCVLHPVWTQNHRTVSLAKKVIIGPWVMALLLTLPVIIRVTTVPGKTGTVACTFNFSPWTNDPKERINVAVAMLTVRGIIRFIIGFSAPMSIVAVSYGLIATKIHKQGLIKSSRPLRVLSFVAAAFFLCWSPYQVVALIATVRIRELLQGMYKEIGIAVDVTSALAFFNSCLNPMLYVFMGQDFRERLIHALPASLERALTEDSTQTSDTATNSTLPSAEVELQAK
Source text: as §1, §2, §3

[3] = target: T3, FPR1 F291A (Homo sapiens, UniProt P21462, F291A); test: cAMP inhibition assay, FPR1 F291A; assay type: cell-based; settings: FPR1 F291A, single replicate readings
T3 construct: expressed in transfected cells; host or cells: HeLa cells, transient, pcDNA3.1(+)
T3 sequence (P21462 1-350 F291A): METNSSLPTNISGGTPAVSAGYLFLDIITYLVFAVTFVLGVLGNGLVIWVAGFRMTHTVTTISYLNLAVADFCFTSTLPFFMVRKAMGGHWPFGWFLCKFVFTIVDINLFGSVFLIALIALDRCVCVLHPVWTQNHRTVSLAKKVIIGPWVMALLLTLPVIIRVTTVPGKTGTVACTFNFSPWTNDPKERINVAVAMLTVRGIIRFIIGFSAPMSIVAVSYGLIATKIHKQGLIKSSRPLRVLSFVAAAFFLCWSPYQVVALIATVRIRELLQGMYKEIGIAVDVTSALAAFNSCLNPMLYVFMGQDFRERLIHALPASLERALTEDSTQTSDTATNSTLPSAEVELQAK
Source text: as §1, §2, §3

[4] = target: T4, FPR1 WT (Homo sapiens, UniProt P21462); test: cAMP inhibition assay, WT FPR1; assay type: cell-based
T4 construct: expressed in transfected cells; host or cells: HeLa cells, transient, pcDNA3.1(+)
T4 sequence (P21462 1-350): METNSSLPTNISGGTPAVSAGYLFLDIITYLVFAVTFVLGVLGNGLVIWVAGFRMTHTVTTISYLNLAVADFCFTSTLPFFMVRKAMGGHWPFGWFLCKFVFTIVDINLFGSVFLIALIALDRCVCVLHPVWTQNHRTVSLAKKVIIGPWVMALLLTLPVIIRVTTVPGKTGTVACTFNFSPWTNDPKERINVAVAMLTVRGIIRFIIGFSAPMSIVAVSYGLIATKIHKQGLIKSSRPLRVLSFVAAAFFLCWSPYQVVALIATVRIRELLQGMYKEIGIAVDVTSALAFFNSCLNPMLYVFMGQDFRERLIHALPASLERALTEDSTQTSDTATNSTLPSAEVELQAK
Source text: as §1
as §2, with “China).” for “China). Different concentrations of the ligands were prepared plus a fixed dose of forskolin with the buffer above.”
(§4) The data were analyzed with Prism 6.0 (GraphPad, San Diego, CA). […] For cell surface expression, data points were presented as the percentages (mean ± SEM) of the flow cytometry fluorescence signals of WT FPR1. […]

[5] = target: T5, FPR1 R201A (Homo sapiens, UniProt P21462, R201A); test: cAMP inhibition assay, FPR1 R201A; assay type: cell-based
T5 construct: expressed in transfected cells; host or cells: HeLa cells, transient, pcDNA3.1(+)
T5 sequence (P21462 1-350 R201A): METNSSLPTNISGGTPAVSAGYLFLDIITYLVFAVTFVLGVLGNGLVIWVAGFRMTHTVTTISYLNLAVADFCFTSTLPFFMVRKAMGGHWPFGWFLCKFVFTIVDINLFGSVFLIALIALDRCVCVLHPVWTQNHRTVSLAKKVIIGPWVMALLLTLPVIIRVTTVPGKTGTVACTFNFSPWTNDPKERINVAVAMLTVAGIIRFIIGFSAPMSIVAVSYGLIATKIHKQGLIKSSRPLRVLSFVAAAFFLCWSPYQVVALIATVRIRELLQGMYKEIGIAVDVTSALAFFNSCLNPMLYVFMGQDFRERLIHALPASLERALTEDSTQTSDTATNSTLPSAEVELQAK
Source text: as §1
as §2, with “China).” for “China). Different concentrations of the ligands were prepared plus a fixed dose of forskolin with the buffer above.”
as §4

[6] = target: T6, WT FPR1 expressed in HeLa cells (human, UniProt P21462 1-350)
T6 sequence (looked up): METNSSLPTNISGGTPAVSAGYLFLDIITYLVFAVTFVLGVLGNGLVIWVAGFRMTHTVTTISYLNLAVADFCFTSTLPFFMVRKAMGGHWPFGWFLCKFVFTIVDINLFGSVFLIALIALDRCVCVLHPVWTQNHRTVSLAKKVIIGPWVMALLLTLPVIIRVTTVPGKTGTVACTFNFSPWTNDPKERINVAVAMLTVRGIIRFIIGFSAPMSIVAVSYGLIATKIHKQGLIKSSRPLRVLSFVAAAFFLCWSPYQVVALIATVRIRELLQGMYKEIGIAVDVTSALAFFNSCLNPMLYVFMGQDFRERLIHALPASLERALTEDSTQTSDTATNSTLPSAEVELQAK

[7] = target: T6, WT FPR1 expressed in HeLa cells; test: cell-based or functional assay
[8] = target: T7, FPR1 R205A (human, UniProt P21462 1-350, R205A); test: cell-based or functional assay
T7 sequence (looked up): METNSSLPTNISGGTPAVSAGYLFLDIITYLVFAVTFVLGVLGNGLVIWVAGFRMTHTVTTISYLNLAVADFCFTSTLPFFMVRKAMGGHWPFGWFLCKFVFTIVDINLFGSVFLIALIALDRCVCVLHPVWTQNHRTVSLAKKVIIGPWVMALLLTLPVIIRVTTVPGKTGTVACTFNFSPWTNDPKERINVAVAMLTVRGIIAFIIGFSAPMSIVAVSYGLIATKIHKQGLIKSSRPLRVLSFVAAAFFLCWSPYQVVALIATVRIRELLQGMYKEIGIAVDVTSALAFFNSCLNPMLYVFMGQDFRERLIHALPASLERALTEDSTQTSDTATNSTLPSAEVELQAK

[9] = target: T8, FPR1 R201A (human, UniProt P21462 1-350, R201A); test: cell-based or functional assay
T8 sequence (looked up): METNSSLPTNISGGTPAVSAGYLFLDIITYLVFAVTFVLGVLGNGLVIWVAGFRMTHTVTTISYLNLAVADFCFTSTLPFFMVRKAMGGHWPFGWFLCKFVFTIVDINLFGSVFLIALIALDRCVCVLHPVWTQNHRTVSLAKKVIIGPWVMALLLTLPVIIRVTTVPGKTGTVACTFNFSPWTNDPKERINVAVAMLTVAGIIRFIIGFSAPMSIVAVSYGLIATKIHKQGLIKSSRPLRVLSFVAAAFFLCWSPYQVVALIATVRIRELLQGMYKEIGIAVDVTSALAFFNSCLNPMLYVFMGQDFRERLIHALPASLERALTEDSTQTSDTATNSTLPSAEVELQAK

In the case of `COc1cc(C=NNC(=O)c2ccc3c(c2)OCO3)ccc1OCc1ccccc1` [Fig. 5c], the “cAMP response, source data of Fig. 5c” value ([1]; Log[M] -4.3) is reported as 31.8 and 48.0 and 38.0 and 26.4 and 16.2 and 78.8, the “cAMP response, source data of Fig. 5c” value ([1]; Log[M] -5.0) is reported as 58.1 and 43.9 and 27.8 and 37.0 and 34.2 and 45.7 and the “cAMP response, source data of Fig. 5c” value ([1]; Log[M] -5.7) is reported as 35.5 and 68.3 and 63.8 and 45.2 and 48.0 and 85.4. For the same molecule, the “cAMP response, source data of Fig. 5c” value ([1]; Log[M] -6.4) was 69.2 and 71.8 and 39.5 and 113.9 and 150.2 and 118.4, the “cAMP response, source data of Fig. 5c” value ([1]; Log[M] -7.1) was 78.9 and 109.8 and 60.3 and 84.0 and 71.2 and 109.6 and the “cAMP response, source data of Fig. 5c” value ([1]; Log[M] -7.8) was 116.3 and 101.9 and 108.0 and 144.2 and 102.7 and 124.3. The “cAMP response, source data of Fig. 5c” value ([1]; Log[M] -8.5) was 91.9 and 89.9 and 58.5 and 89.3 and 105.1 and 67.8, the “cAMP response, source data of Fig. 5c” value ([2]; Log[M] -4.3, single replicate readings) was 37.2 and 21.4 and -4.8 and 34.9 and 32.8 and 41.9 and the “cAMP response, source data of Fig. 5c” value ([2]; Log[M] -5.0, single replicate readings) was 14.6 and -24.6 and 16.2 and 33.5 and 20.2 and 31.4. For the same molecule, the “cAMP response, source data of Fig. 5c” value ([2]; Log[M] -5.7, single replicate readings) was 49.5 and 79.5 and 66.2 and 55.1 and 52.2 and 52.7, the “cAMP response, source data of Fig. 5c” value ([2]; Log[M] -6.4, single replicate readings) was 79.9 and 58.8 and 61.6 and 91.8 and 112.7 and 81.8 and the “cAMP response, source data of Fig. 5c” value ([2]; Log[M] -7.1, single replicate readings) was 135.9 and 91.7 and 83.9 and 115.6 and 133.7 and 94.7. For the same molecule, the “cAMP response, source data of Fig. 5c” value ([2]; Log[M] -7.8, single replicate readings) was 106.7 and 82.2 and 108.6 and 111.9 and 96.0 and 84.6, the “cAMP response, source data of Fig. 5c” value ([2]; Log[M] -8.5, single replicate readings) was 91.1 and 94.4 and 114.8 and 80.2 and 111.9 and 117.6 and the “cAMP response, source data of Fig. 5c” value ([3]; Log[M] -4.3) was 33.9 and 34.1 and 26.7 and 28.4 and 24.2 and 31.1. For the same molecule, the “cAMP response, source data of Fig. 5c” value ([3]; Log[M] -5.0) was 45.9 and 38.0 and 28.1 and 39.1 and 42.3 and 29.9 and the “cAMP response, source data of Fig. 5c” value ([3]; Log[M] -5.7) was 66.9 and 58.1 and 74.7 and 72.6.

For `CC[C@H](C)[C@H](NC(=O)[C@H](CCSC)NC=O)C(=O)N[C@@H](Cc1ccccc1)C(=O)N[C@@H](CC(C)C)C(=O)O` [fMIFL, fMet-Ile-Phe-Leu] (For-MIFL-OH), the EC50 [1] was 2.51 nM, the EC50 [4] was 0.0631 nM and the EC50 [5] was 6.31 nM.

Work on WKYMVm (peptide) yielded a pEC50 of inhibition of forskolin-elevated cAMP, transfected HeLa cells [6] of 8.4.

B1: fMet-Ile-Phe-Leu (fMIFL) (peptide)
peptide: For-MIFL
In the case of B1, the “pEC50 of inhibition of forskolin-elevated cAMP, transfected HeLa cells” value (“pEC50 of inhibition … transfected HeLa cells” for short) [7] is reported as 10.2, the “pEC50 of inhibition … transfected HeLa cells” value [8] is reported as 8.6 and the “pEC50 of inhibition … transfected HeLa cells” value [9] is reported as 8.2.
